Data taken from ChEMBL document CHEMBL3792365, “Dioxol and dihydrodioxin analogs of 2- and 3-phenylacetonitriles as potent anti-cancer agents with nanomolar activity against a variety of human cancer cells” (2016).

Columns and labels:
Type in all cases: functional
[1] = Growth inhibition of human DU145 cells at 10 uM after 48 hrs by sulforhodamine B assay; conditions: DU-145, 48 h, values are per cent of control
SK-MEL-2 = assay: Growth inhibition of human SK-MEL-2 cells at 10 uM after 48 hrs by sulforhodamine B assay; conditions: SK-MEL-2, 48 h, values are per cent of control
[2] = Growth inhibition of human OVCAR5 cells at 10 uM after 48 hrs by sulforhodamine B assay; conditions: OVCAR-5, 48 h, values are per cent of control
A498 = assay: Growth inhibition of human A498 cells at 10 uM after 48 hrs by sulforhodamine B assay; conditions: A498, 48 h, values are per cent of control
U-251 = assay: Growth inhibition of human U251 cells at 10 uM after 48 hrs by sulforhodamine B assay; conditions: U-251, 48 h, values are per cent of control
NCI-H23 = assay: Growth inhibition of human NCI-H23 cells at 10 uM after 48 hrs by sulforhodamine B assay; conditions: NCI-H23, 48 h, values are per cent of control
[3] = Growth inhibition of human SW620 cells at 10 uM after 48 hrs by sulforhodamine B assay; conditions: SW-620, 48 h, values are per cent of control
MDA-MB-468 = assay: Growth inhibition of human MDA-MB-468 cells at 10 uM after 48 hrs by sulforhodamine B assay; conditions: MDA-MB-468, 48 h, values are per cent of control
[4] = Growth inhibition of human TK10 cells at 10 uM after 48 hrs by sulforhodamine B assay; conditions: TK-10, 48 h, values are per cent of control
[5] = Growth inhibition of human SNB19 cells at 10 uM after 48 hrs by sulforhodamine B assay; conditions: SNB-19, 48 h, values are per cent of control
NCI-H522 = assay: Growth inhibition of human NCI-H522 cells at 10 uM after 48 hrs by sulforhodamine B assay; conditions: NCI-H522, 48 h, values are per cent of control
[6] = Growth inhibition of human HCT116 cells at 10 uM after 48 hrs by sulforhodamine B assay; conditions: HCT-116, 48 h, values are per cent of control
SR = assay: Growth inhibition of human SR cells at 10 uM after 48 hrs by sulforhodamine B assay; conditions: values are per cent of control
[7] = Growth inhibition of human UACC62 cells at 10 uM after 48 hrs by sulforhodamine B assay; conditions: UACC-62, 48 h, values are per cent of control
[8] = Growth inhibition of human SF539 cells at 10 uM after 48 hrs by sulforhodamine B assay; conditions: SF-539, 48 h, values are per cent of control
MDA-MB-435 = assay: Growth inhibition of human MDA-MB-435 cells at 10 uM after 48 hrs by sulforhodamine B assay; conditions: MDA-MB-435, 48 h, values are per cent of control
NCI-H322M = assay: Growth inhibition of human NCI-H322M cells at 10 uM after 48 hrs by sulforhodamine B assay; conditions: values are per cent of control
SK-MEL-28 = assay: Growth inhibition of human SK-MEL-28 cells at 10 uM after 48 hrs by sulforhodamine B assay; conditions: SK-MEL-28, 48 h, values are per cent of control
[9] = Growth inhibition of human Caki1 cells at 10 uM after 48 hrs by sulforhodamine B assay; conditions: CAKI-1, 48 h, values are per cent of control
[10] = Growth inhibition of human RXF393 cells at 10 uM after 48 hrs by sulforhodamine B assay; conditions: RXF 393, 48 h, values are per cent of control
NCI-H460 = assay: Growth inhibition of human NCI-H460 cells at 10 uM after 48 hrs by sulforhodamine B assay; conditions: NCI-H460, 48 h, values are per cent of control
SN12C = assay: Growth inhibition of human SN12C cells at 10 uM after 48 hrs by sulforhodamine B assay; conditions: values are per cent of control
M14 = assay: Growth inhibition of human M14 cells at 10 uM after 48 hrs by sulforhodamine B assay; conditions: M14, 48 h, values are per cent of control
786-0 = assay: Growth inhibition of human 786-0 cells at 10 uM after 48 hrs by sulforhodamine B assay; conditions: 786-0, 48 h, values are per cent of control
K562 = assay: Growth inhibition of human K562 cells at 10 uM after 48 hrs by sulforhodamine B assay; conditions: K562, 48 h, values are per cent of control
[11] = Growth inhibition of human HOP62 cells at 10 uM after 48 hrs by sulforhodamine B assay; conditions: HOP-62, 48 h, values are per cent of control
[12] = Growth inhibition of human OVCAR4 cells at 10 uM after 48 hrs by sulforhodamine B assay; conditions: OVCAR-4, 48 h, values are per cent of control
NCI-H226 = assay: Growth inhibition of human NCI-H226 cells at 10 uM after 48 hrs by sulforhodamine B assay; conditions: NCI-H226, 48 h, values are per cent of control
[13] = Growth inhibition of human SF268 cells at 10 uM after 48 hrs by sulforhodamine B assay; conditions: SF-268, 48 h, values are per cent of control
[14] = Growth inhibition of human SKOV3 cells at 10 uM after 48 hrs by sulforhodamine B assay; conditions: SK-OV-3, 48 h, values are per cent of control
ACHN = assay: Growth inhibition of human ACHN cells at 10 uM after 48 hrs by sulforhodamine B assay; conditions: values are per cent of control
[15] = Growth inhibition of human HCC2998 cells at 10 uM after 48 hrs by sulforhodamine B assay; conditions: HCC 2998, 48 h, values are per cent of control
[16] = Growth inhibition of human NCI-ADR-RES cells at 10 uM after 48 hrs by sulforhodamine B assay; conditions: values are per cent of control
[17] = Growth inhibition of human HCT15 cells at 10 uM after 48 hrs by sulforhodamine B assay; conditions: HCT-15, 48 h, values are per cent of control
[18] = Growth inhibition of human SNB75 cells at 10 uM after 48 hrs by sulforhodamine B assay; conditions: SNB-75, 48 h, values are per cent of control
[19] = Growth inhibition of human SF295 cells at 10 uM after 48 hrs by sulforhodamine B assay; conditions: SF-295, 48 h, values are per cent of control
T47D = assay: Growth inhibition of human T47D cells at 10 uM after 48 hrs by sulforhodamine B assay; conditions: values are per cent of control
[20] = Growth inhibition of human COLO205 cells at 10 uM after 48 hrs by sulforhodamine B assay; conditions: COLO 205, 48 h, values are per cent of control
[21] = Growth inhibition of human IGROV1 cells at 10 uM after 48 hrs by sulforhodamine B assay; conditions: IGROV-1, 48 h, values are per cent of control
[22] = Growth inhibition of human Hs 578T cells at 10 uM after 48 hrs by sulforhodamine B assay; conditions: values are per cent of control

Structure (SMILES)	growth, % of control at 10 µM [1] [%]	growth, % of control at 10 µM (SK-MEL-2) [%]	growth, % of control at 10 µM [2] [%]	growth, % of control at 10 µM (A498) [%]	growth, % of control at 10 µM (U-251) [%]	growth, % of control at 10 µM (NCI-H23) [%]	growth, % of control at 10 µM [3] [%]	growth, % of control at 10 µM (MDA-MB-468) [%]	growth, % of control at 10 µM [4] [%]	growth, % of control at 10 µM [5] [%]	growth, % of control at 10 µM (NCI-H522) [%]	growth, % of control at 10 µM [6] [%]	growth, % of control at 10 µM (SR) [%]	growth, % of control at 10 µM [7] [%]	growth, % of control at 10 µM [8] [%]	growth, % of control at 10 µM (MDA-MB-435) [%]	growth, % of control at 10 µM (NCI-H322M) [%]	growth, % of control at 10 µM (SK-MEL-28) [%]	growth, % of control at 10 µM [9] [%]	growth, % of control at 10 µM [10] [%]	also measured
N#C/C(=C\c1ccc(Cl)cc1Cl)c1ccc2c(c1)OCO2	99.3	98.9	106	101	91.1	96.3	106	82.1	90.7	99.8	75.8	99.5	68.7	81.9	93.8	50.7	86.4	98.3	86.9	101	growth, % of control at 10 µM (NCI-H460): 103%; growth, % of control at 10 µM (SN12C): 102%; growth, % of control at 10 µM (M14): 88.7%; growth, % of control at 10 µM (786-0): 91.4%; growth, % of control at 10 µM (K562): 76.2%; growth, % of control at 10 µM [11]: 88%; growth, % of control at 10 µM [12]: 88.7%; growth, % of control at 10 µM (NCI-H226): 113%; growth, % of control at 10 µM [13]: 94.4%; growth, % of control at 10 µM [14]: 97.3%; growth, % of control at 10 µM (ACHN): 102%; growth, % of control at 10 µM [15]: 94.8%; growth, % of control at 10 µM [16]: 100%; growth, % of control at 10 µM [17]: 82.9%; growth, % of control at 10 µM [18]: 76.2%; growth, % of control at 10 µM [19]: 97.5%; growth, % of control at 10 µM (T47D): 76.3%; growth, % of control at 10 µM [20]: 99%; growth, % of control at 10 µM [21]: 97.9%; growth, % of control at 10 µM [22]: 135%
COc1ccc(/C(C#N)=C/c2ccc3c(c2)OCCO3)cc1OC	20.7	19.4	73.5	-4.1	19.9	46.8	15.5	-11.4	45.7	53.2	-30.1	22.3	1.8	43.7	5.6	-17.6	34.5	61.7	17.6	14.9	growth, % of control at 10 µM (NCI-H460): 12.4%; growth, % of control at 10 µM (SN12C): 56.7%; growth, % of control at 10 µM (M14): 19.7%; growth, % of control at 10 µM (786-0): 39.3%; growth, % of control at 10 µM (K562): 11.6%; growth, % of control at 10 µM [11]: 36.9%; growth, % of control at 10 µM [12]: 69.3%; growth, % of control at 10 µM (NCI-H226): 71.1%; growth, % of control at 10 µM [13]: 53.2%; growth, % of control at 10 µM [14]: 20%; growth, % of control at 10 µM (ACHN): 51.3%; growth, % of control at 10 µM [15]: 60.1%; growth, % of control at 10 µM [16]: 24.5%; growth, % of control at 10 µM [17]: 31.6%; growth, % of control at 10 µM [18]: 2.2%; growth, % of control at 10 µM [19]: -14%; growth, % of control at 10 µM (T47D): 31%; growth, % of control at 10 µM [20]: -1.3%; growth, % of control at 10 µM [21]: 49.5%; growth, % of control at 10 µM [22]: 16.3%
N#C/C(=C\c1cc(F)cc(F)c1)c1ccc2c(c1)OCO2	109	119	103	111	108	103	105	102	119	110	132	97.1	84.6	106	97.8	98.2	121	115	94.2	98.5	growth, % of control at 10 µM (NCI-H460): 103%; growth, % of control at 10 µM (SN12C): 106%; growth, % of control at 10 µM (M14): 99%; growth, % of control at 10 µM (786-0): 94.6%; growth, % of control at 10 µM (K562): 106%; growth, % of control at 10 µM [11]: 91.9%; growth, % of control at 10 µM [12]: 107%; growth, % of control at 10 µM (NCI-H226): 102%; growth, % of control at 10 µM [13]: 101%; growth, % of control at 10 µM [14]: 102%; growth, % of control at 10 µM (ACHN): 109%; growth, % of control at 10 µM [15]: 94.6%; growth, % of control at 10 µM [16]: 106%; growth, % of control at 10 µM [17]: 99.4%; growth, % of control at 10 µM [18]: 112%; growth, % of control at 10 µM [19]: 98.5%; growth, % of control at 10 µM (T47D): 102%; growth, % of control at 10 µM [20]: 105%; growth, % of control at 10 µM [21]: 121%; growth, % of control at 10 µM [22]: 122%
COc1ccc(/C=C(\C#N)c2ccc3c(c2)OCO3)cc1OC	104	102	104	96.5	102	97.1	107	104	96.5	105	94.5	105	83	114	103	96.1	96.8	116	102	111	growth, % of control at 10 µM (NCI-H460): 106%; growth, % of control at 10 µM (SN12C): 103%; growth, % of control at 10 µM (M14): 106%; growth, % of control at 10 µM (786-0): 103%; growth, % of control at 10 µM (K562): 94.8%; growth, % of control at 10 µM [11]: 97.6%; growth, % of control at 10 µM [12]: 110%; growth, % of control at 10 µM (NCI-H226): 114%; growth, % of control at 10 µM [13]: 99.5%; growth, % of control at 10 µM [14]: 105%; growth, % of control at 10 µM (ACHN): 111%; growth, % of control at 10 µM [15]: 106%; growth, % of control at 10 µM [16]: 102%; growth, % of control at 10 µM [17]: 99.8%; growth, % of control at 10 µM [18]: 87.5%; growth, % of control at 10 µM [19]: 105%; growth, % of control at 10 µM (T47D): 88.7%; growth, % of control at 10 µM [20]: 106%; growth, % of control at 10 µM [21]: 96.9%; growth, % of control at 10 µM [22]: 114%
